For experiment [1], the system named is MOLM-13. In words: Long term proliferation assay (Table 3A), MOLM-13. Format: cell-based. Conditions: Homo sapiens. The protocol: (§1) Example 5b: IC50 determination of compounds of invention in various cell lines (Long Term Proliferation Assay)
(§2) The following 5 cell lines are used or can be used for the long term proliferation assay.
(§3) Compounds of invention are tested in the 5 suspension lines by 14-day long-term proliferation assay.
(§4) The compound is tested in 10-pt dose titration (client will determine the starting concentration and the dilution scheme) and the final DMSO concentration is kept at 0.2%.
(§5) Vehicle and media control are also included. All treatments are done in triplicate.
(§6) 3 plates are used for each cell line and 15 plates are used for the 5 cell lines.
(§7) • 1) On Day 0, in a flat bottom 96-well plate, add 100 μL of cells per well at the densities optimized. • 2) Prepare compounds in DMSO at 500× final concentration. Dilute the compounds with DMSO at the dilution. • 3) Dilute the compounds in media at 3×final concentration. Add 50 μL of compound or DMSO at 3× final concentration to each well. Final volume in each well is 150 μL, and final concentration of DMSO is 0.2%. Also include 3 untreated control wells, by adding 50 μL of media alone. 4) Incubate plates for 96 hours. • 5) Count the cells using the Acumen, with capabilities for 96-well plates. Pipette cells up and down to mix in each well, and add desired volume of cells to a new flat bottom poly-D-lysine 96-well plate. Add Calcein AM at 1 μM final concentration. Let cells sit at RT for 10 mins followed by a quick spin to get cells settled on the bottom of the wells. Incubate the plate for additional 40 mins in the incubator. Take out the plate and read by Acumen. Calculate the cell numbers taken into account the dilution factors. • 6) Split the master plate. To do this take the total viable cell count calculated using step 5). Take the average of the replicates for each dose in order to be used in splitting the cells. • 7) Use a 96 well V-bottom plate to spin down the cells to remove old media and compound to split the cells. Based on the split ratio place the proper amount of media and cells into the V-bottom plate, and spin the plate at 1100 rpm for 5 minutes. • 8) Following the spin remove the media, careful not to disturb the cellpellet. • 9) Re-suspend pellet in 100 μL fresh media, and add to a new 96-well flat bottom plate. • 10) Add fresh compound, in the same manner as Step 3). • 11) Incubate plates for 72 hours. Repeat steps 5)-10) on Day 7. • 12) Incubate plates for 96 hours. Repeat Step 5)-10) on Day 11. • 13) Incubate 72 hours and repeat step 5) to take a final count. • 14) Data Analysis
(§8) To calculate growth for days 4, 7, 11, and 14: • Calculate the split factor for day 4 to 7, day 7 to 11, and day 11-14.

In another experiment the test system is MV-4-11. In words: Long term proliferation assay (Table 3A), MV-4-11. Format: cell-based. The settings on record: Homo sapiens, MV4-11. How it is done: as §1, §2, §3, §4, §5, §6, §7, §8
Another experiment addresses Menin-MLL (Homo sapiens (Human), UniProt O00255). In words: Menin-MLL in vitro inhibitory activity (Example 101a, Table 2). Format: cell-based.
In a further experiment the target is menin (Homo sapiens (Human), UniProt O00255). In words: Kd (Table 3A). Format: binding.
menin, sequence (O00255 whole entry, species assumed): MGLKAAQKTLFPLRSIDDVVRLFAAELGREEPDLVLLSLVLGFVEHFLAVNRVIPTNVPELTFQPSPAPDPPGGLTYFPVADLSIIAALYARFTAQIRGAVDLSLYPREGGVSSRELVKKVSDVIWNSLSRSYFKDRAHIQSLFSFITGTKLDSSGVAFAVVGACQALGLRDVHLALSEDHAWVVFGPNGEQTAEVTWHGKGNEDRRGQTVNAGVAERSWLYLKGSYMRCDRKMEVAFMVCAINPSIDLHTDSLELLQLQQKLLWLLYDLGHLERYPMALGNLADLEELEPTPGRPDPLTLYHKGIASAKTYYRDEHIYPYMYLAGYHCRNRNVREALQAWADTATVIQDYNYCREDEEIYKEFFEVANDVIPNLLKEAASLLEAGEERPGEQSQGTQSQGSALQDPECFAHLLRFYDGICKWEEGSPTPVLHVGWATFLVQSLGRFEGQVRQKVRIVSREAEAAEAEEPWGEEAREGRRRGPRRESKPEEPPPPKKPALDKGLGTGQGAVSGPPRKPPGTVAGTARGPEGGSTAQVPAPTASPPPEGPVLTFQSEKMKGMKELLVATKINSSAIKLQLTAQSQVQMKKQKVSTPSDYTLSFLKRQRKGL
In experiment [2] the test system is OCI-AML-3. In words: Long term proliferation, Cell Titer-Glo (Table 3B), OCI-AML-3. Format: cell-based. The settings on record: Homo sapiens, OCI-AML-3, Cell Titer-Glo.
The test system of experiment [3] is MV4-11. In words: Long term proliferation, InCell (Table 3C), MV4-11. Format: cell-based. The settings on record: Homo sapiens, MV4-11, InCell. How it is done: as §3, §4, §5, §7, §8
Experiment [4] deals with OCI-AML-3. In words: Long term proliferation, InCell (Table 3C), OCI-AML-3. Format: cell-based. The settings on record: Homo sapiens, OCI-AML-3, InCell. How it is done: as §3, §4, §5, §7, §8
Experiment [5] relates to MOLM-13. In words: Long term proliferation, Cell Titer-Glo (Table 3B), MOLM-13. Format: cell-based. Conditions: Homo sapiens, MOLM-13, Cell Titer-Glo.
Experiment [6] has as its system MOLM-13. In words: Long term proliferation, InCell (Table 3C), MOLM-13. Format: cell-based. Conditions: Homo sapiens, MOLM-13, InCell. The protocol: as §3, §4, §5, §7, §8
The subject of experiment [7] is KG-1. In words: Long term proliferation, InCell (Table 3C), KG-1. Format: cell-based. Conditions: Homo sapiens, KG-1, InCell. The protocol:
as §3, §4, §5, §7, §8

The subject of experiment [8] is MV4-11. In words: Long term proliferation, Cell Titer-Glo (Table 3B), MV4-11. Format: cell-based. The settings on record: Homo sapiens, MV4-11, Cell Titer-Glo.
Experiment [9] relates to KG-1. In words: Long term proliferation, Cell Titer-Glo (Table 3B), KG-1. Format: cell-based. The settings on record: Homo sapiens, KG-1, Cell Titer-Glo.
Where [10] appears, read: 96 h, MOLM-13, Day 4, read-out: MOLM-13 Day 4 IC50.
[11] abbreviates: 264 h, MOLM-13, Day 11, read-out: MOLM-13 Day 11 IC50.
Setting [12] is: MV-4-11, Day 4, read-out: MV-4-11 Day 4 IC50.
The mark [13] stands for this setting: MV-4-11, Day 11, read-out: MV-4-11 Day 11 IC50.
The mark [14] stands for this setting: 96 h, Day 4, read-out: Day 4 IC50.
Where [15] appears, read: 168 h, Day 7, read-out: Day 7 IC50.
Setting [16] is: 264 h, Day 11, read-out: Day 11 IC50.
The mark [17] stands for this setting: 336 h, Day 14, read-out: Day 14 IC50.

Read-outs that look alike come from different tables or passages of the source. A value given as a limit tells only on which side of the number the result lay.

Menin-MLL, sequence (O00255 whole entry): as the sequence (O00255 whole entry, species assumed) above

As to `O=C(Nc1ccc(-c2cc3c(N4CCOCC4)ncnc3[nH]2)cc1)Nc1cc(-c2cccnc2)no1` [Compound 2, 1-(4-(4-morpholino-7H-pyrrolo[2,3-d]pyrimidin-6-yl)phenyl)-3-(3-(pyridin-3-yl)isoxazol-5-yl)urea], the IC50 in the experiment with MOLM-13 [1] (setting [10]) stood at 74 nM; in the experiment on MOLM-13 [1] (setting [11]), 54 nM; in the experiment with MV-4-11 (setting [12]), 174 nM; with MV-4-11 (setting [13]), 55 nM; on Menin-MLL, 240 nM. In addition, the Kd at menin is > 1000 nM.
Consider `O=C(Nc1ccc(-c2cc3c(N4CCOCC4)ncnc3[nH]2)cc1)Nc1cc(-c2ccncc2)no1` [Compound 8, 1-{4-[4-(morpholin-4-yl)-7H-pyrrolo[2,3-d]pyrimidin-6-yl]phenyl}-3-[3-(pyridin-4-yl)-1,2-oxazol-5-yl]urea], for which the IC50 worked out at 590 nM in the experiment on OCI-AML-3 [2] (setting [14]); 560 nM in the experiment on OCI-AML-3 [2] (setting [15]); 550 nM in the experiment on OCI-AML-3 [2] (setting [16]); 550 nM in the experiment on OCI-AML-3 [2] (setting [17]); 350 nM in the experiment with MV4-11 [3] (setting [14]); 280 nM with MV4-11 [3] (setting [16]). For the same molecule, the IC50 worked out at 490 nM with OCI-AML-3 [4] (setting [14]); 540 nM with OCI-AML-3 [4] (setting [16]); 320 nM in the experiment on MOLM-13 [5] (setting [14]); 200 nM in the experiment on MOLM-13 [5] (setting [15]); 150 nM with MOLM-13 [5] (setting [16]); 250 nM in the experiment on MOLM-13 [5] (setting [17]). Besides, the IC50 worked out at 224 nM in the experiment with MOLM-13 [1] (setting [10]); 55 nM in the experiment with MOLM-13 [1] (setting [11]); 355 nM in the experiment with MV-4-11 (setting [12]); 71 nM in the experiment with MV-4-11 (setting [13]); 370 nM in the experiment with MOLM-13 [6] (setting [14]); 190 nM with MOLM-13 [6] (setting [16]). In addition, the IC50 in the experiment with KG-1 [7] (setting [14]) is 3240 nM; in the experiment on KG-1 [7] (setting [16]) it was 2090 nM; with MV4-11 [8] (setting [14]), 540 nM; with MV4-11 [8] (setting [15]), 100 nM; in the experiment with MV4-11 [8] (setting [16]) it was 200 nM; in the experiment with MV4-11 [8] (setting [17]), 60 nM. Also, the IC50 came out at 4900 nM in the experiment on KG-1 [9] (setting [14]), 2950 nM in the experiment on KG-1 [9] (setting [15]), 2140 nM in the experiment on KG-1 [9] (setting [16]) and 680 nM in the experiment with KG-1 [9] (setting [17]). At menin, the Kd came out at 250 nM.

Values taken from patent publication US20240140953A1, “INHIBITORS OF MENIN-MLL INTERACTION” (BIOMEA FUSION, INC., priority 2018, published 2024).
